One test has as its target T1, M4 muscarinic receptor (Homo sapiens, UniProt P08173).
T1 construct: expressed in transfected cells; host or cells: CHO cells (M4-CHO, under puromycin, zeocin and blasticidin selection)
T1 sequence (P08173 1-479): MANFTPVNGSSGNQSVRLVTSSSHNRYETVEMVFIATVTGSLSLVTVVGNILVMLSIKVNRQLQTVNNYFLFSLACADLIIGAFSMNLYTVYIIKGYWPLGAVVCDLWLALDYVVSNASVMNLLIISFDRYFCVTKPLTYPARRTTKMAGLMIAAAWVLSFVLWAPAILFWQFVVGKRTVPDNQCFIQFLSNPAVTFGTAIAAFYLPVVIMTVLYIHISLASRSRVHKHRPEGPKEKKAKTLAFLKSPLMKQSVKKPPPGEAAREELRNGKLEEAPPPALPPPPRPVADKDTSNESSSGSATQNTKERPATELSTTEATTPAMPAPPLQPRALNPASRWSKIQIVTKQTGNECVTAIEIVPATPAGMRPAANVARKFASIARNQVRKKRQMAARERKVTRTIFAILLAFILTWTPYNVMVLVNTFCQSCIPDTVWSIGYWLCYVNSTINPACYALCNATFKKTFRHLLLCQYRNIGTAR
As to the kind of experiment: Functional mobilization of intracellular calcium (FLIPR, Fluo-3), M4-CHO cells. It counts as cell-based. To be noted: for Emax: read-out: M4 Efficacy. In short, it runs like this: (§1)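 Intracellular calcium was tracked by fluorescence (488/540 nm) over 60 sec after compound addition to dye-loaded CHO cells expressing the receptor. Inhibitory activity used a 15 min pre-incubation before carbachol at the subtype EC80.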
In general terms: A change in cytosolic calcium serves as a functional read-out for many receptors and channels.

The target of a further test is T2, M1 muscarinic receptor (Homo sapiens, UniProt P11229).
T2 construct: expressed in transfected cells; host or cells: CHO cells (M1-CHO, under zeocin and G418 selection)
T2 sequence (P11229 1-460): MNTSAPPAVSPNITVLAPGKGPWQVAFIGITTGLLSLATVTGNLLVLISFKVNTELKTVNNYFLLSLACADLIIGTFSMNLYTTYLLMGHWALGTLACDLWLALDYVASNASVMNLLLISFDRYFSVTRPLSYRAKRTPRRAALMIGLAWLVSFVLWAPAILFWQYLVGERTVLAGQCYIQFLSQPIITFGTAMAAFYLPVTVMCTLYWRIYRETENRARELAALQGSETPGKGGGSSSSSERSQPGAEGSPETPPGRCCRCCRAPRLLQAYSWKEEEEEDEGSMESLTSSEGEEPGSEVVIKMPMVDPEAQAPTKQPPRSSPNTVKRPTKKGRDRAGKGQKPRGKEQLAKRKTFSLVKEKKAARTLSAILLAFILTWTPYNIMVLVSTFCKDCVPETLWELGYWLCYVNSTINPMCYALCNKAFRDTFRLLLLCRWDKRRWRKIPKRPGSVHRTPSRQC
As to the kind of experiment: Functional mobilization of intracellular calcium (FLIPR, Fluo-3), M1-CHO cells. The format is cell-based. The conditions noted are these: for Emax: read-out: M1 Efficacy. In short, it runs like this: as §1

Where [1] appears, read: compound nos. 1-454, 100% efficacy is the maximum response obtained with the Carbachol control.
Setting [2] is: compound nos. 1-454, M4-CHO cells, calcium mobilization.
Where [3] appears, read: compound nos. 1-454, M1-CHO cells, calcium mobilization.
Setting [4] is: compound nos. 455-509, 100% efficacy is the maximum response obtained with the Carbachol control.

Read-outs that look alike come from different tables or passages of the source.

Here are results for twelve compounds from patent US7858635B2 (priority 2005, dated 2010).

`C/C=C\c1ccc2c(c1)C1(CCN(C3CCN(C(=O)OCC)CC3)CC1)CN2C(C)=O` [compound 407]: the “M4 Activity” value on M4 muscarinic receptor (compound nos. 1-454) is “+ (activity was measured to be greater than or equal to 4.0 μM)”. The Emax was < 55% on M4 muscarinic receptor (setting [1]) and < 65% at M1 muscarinic receptor (setting [1]). In addition, the “M1 Activity” value on M1 muscarinic receptor (compound nos. 1-454) is “++ (activity was measured to be between 0.7 μM and 3.0 μM)”.
In the case of `CC(=O)N1CC2(CCN(C3CC4CCC3C4)CC2)c2cc(C)ccc21` (stereo not drawn) [compound 138], the results for the Emax on M4 muscarinic receptor (setting [1]) and at M1 muscarinic receptor (setting [1]) were 55 to 70% and 65 to 85%, respectively. Also, the “M4 Activity” value at M4 muscarinic receptor (setting [2]) is “+ (activity was measured to be greater than or equal to 4.0 μM)”. Besides, the “M1 Activity” value at M1 muscarinic receptor (setting [3]) is listed as “+++ (activity was measured to be less than or equal to 0.7 μM)”.
As for `CCOC(=O)N1CCC(N2CCC3(CC2)CN(CC(C)=O)c2ccc(F)cc23)CC1` [compound 249], the Emax on M4 muscarinic receptor (setting [1]) was in the range of 55 to 70%; on M1 muscarinic receptor (setting [1]), 65 to 85%. For the same compound, on M4 muscarinic receptor (setting [2]), the “M4 Activity” value was “+ (activity was measured to be greater than or equal to 4.0 μM)”. Also, at M1 muscarinic receptor (setting [3]), the “M1 Activity” value was “+ (activity was measured to be greater than or equal to 3.0 μM)”.
Take `Fc1ccc2c(c1)C1(CCN(CC3CCC4CCC3C4)CC1)CN2` (stereo not drawn) [compound 13]: the values for the Emax at M4 muscarinic receptor (setting [1]) and on M1 muscarinic receptor (setting [1]) were < 55% and 65 to 85%, respectively. For the same compound, at M4 muscarinic receptor (setting [2]), the “M4 Activity” value is reported as “+ (activity was measured to be greater than or equal to 4.0 μM)”. Besides, the “M1 Activity” value on M1 muscarinic receptor (setting [3]) is “++ (activity was measured to be between 0.7 μM and 3.0 μM)”.
With `C#CCCOC(=O)N1C2CCC1CC(N1CCC3(CC1)CN(C(=O)N(C)C)c1ccc(F)cc13)C2` (stereo not drawn) [compound 230], the Emax at M4 muscarinic receptor (setting [1]) was > 70%; at M1 muscarinic receptor (setting [1]), < 65%. On M4 muscarinic receptor (setting [2]), the “M4 Activity” value is “++ (activity was measured to be between 0.1 μM and 4.0 μM)”. At M1 muscarinic receptor (setting [3]), the “M1 Activity” value is given as “+ (activity was measured to be greater than or equal to 3.0 μM)”.
On to `CCOC(=O)N1CCC(N2CCC3(CC2)CN(C(=O)c2ccccc2)c2ccc(F)cc23)CC1` [compound 384], for which the “M4 Activity” value on M4 muscarinic receptor (compound nos. 1-454) is “+ (activity was measured to be greater than or equal to 4.0 μM)”. Further, the results for the Emax at M4 muscarinic receptor (setting [1]) and at M1 muscarinic receptor (setting [1]) were < 55% and < 65%, respectively. In addition, the “M1 Activity” value on M1 muscarinic receptor (compound nos. 1-454) was “++ (activity was measured to be between 0.7 μM and 3.0 μM)”.
In the case of `Cc1ccc2c(c1)C1(CCN(CC3CC4CCC3O4)CC1)CN2` (stereo not drawn) [compound 372], the results for the Emax at M4 muscarinic receptor (setting [1]) and at M1 muscarinic receptor (setting [1]) were > 70% and 65 to 85%, respectively. In addition, the “M4 Activity” value on M4 muscarinic receptor (setting [2]) was “++ (activity was measured to be between 0.1 μM and 4.0 μM)”. The “M1 Activity” value on M1 muscarinic receptor (setting [3]) is reported as “+++ (activity was measured to be less than or equal to 0.7 μM)”.
`CCOC(=O)N1CCC(N2CCC3(CC2)C[C@H](NC(C)=O)c2ccccc23)CC1` [compound 61]: the “M4 Efficacy” value at M4 muscarinic receptor (setting [1]) was “++ (efficacy was calculated to be between 70% and 55%)”. Besides, the “M4 Activity” value at M4 muscarinic receptor (setting [2]) was “++ (activity was measured to be between 0.1 μM and 4.0 μM)”. Moreover, the “M1 Efficacy” value on M1 muscarinic receptor (setting [1]) is “++ (efficacy was calculated to be between 85% and 65%)”. For the same compound, on M1 muscarinic receptor (setting [3]), the “M1 Activity” value is “+++ (activity was measured to be less than or equal to 0.7 μM)”.
As for `CCOC(=O)N1CCC(N2CCC3(CC2)CN(C(=O)c2cccc(F)c2)c2ccc(F)cc23)CC1` [compound 410], the “M4 Activity” value at M4 muscarinic receptor (compound nos. 1-454) was “++ (activity was measured to be between 0.1 μM and 4.0 μM)”. Also, the Emax at M4 muscarinic receptor (setting [1]) was < 55%; on M1 muscarinic receptor (setting [1]) it was < 65%. Also, the “M1 Activity” value on M1 muscarinic receptor (compound nos. 1-454) was “++ (activity was measured to be between 0.7 μM and 3.0 μM)”.
On to `CC(C)C(=O)N(C)[C@H]1CC2(CCN(C[C@H]3C[C@H]4CC[C@H]3C4)CC2)c2ccccc21` [compound 246], for which the Emax on M4 muscarinic receptor (setting [1]) was > 70%; on M1 muscarinic receptor (setting [1]) it was < 65%. In addition, the “M4 Activity” value on M4 muscarinic receptor (setting [2]) is “++ (activity was measured to be between 0.1 μM and 4.0 μM)”. Also, the “M1 Activity” value on M1 muscarinic receptor (setting [3]) is “++ (activity was measured to be between 0.7 μM and 3.0 μM)”.
Consider `O=C(OCC(F)F)N1C2CCC1CC(N1CCC3(CC1)COc1ccc(F)cc13)C2` (stereo not drawn) [compound 186], for which the Emax on M4 muscarinic receptor (setting [1]) is 55 to 70%; at M1 muscarinic receptor (setting [1]), > 85%. Further, on M4 muscarinic receptor (setting [2]), the “M4 Activity” value is reported as “+ (activity was measured to be greater than or equal to 4.0 μM)”. The “M1 Activity” value on M1 muscarinic receptor (setting [3]) is “+++ (activity was measured to be less than or equal to 0.7 μM)”.
`CN(C)C(=O)N1CC2(CCN(C3CCN(c4cnc(-c5ccncc5)cn4)CC3)CC2)c2ccccc21` [compound 467]: the Emax is 25 to 100% at M4 muscarinic receptor (setting [4]) and > 100% at M1 muscarinic receptor (setting [4]). The “M4 Activity” value on M4 muscarinic receptor (compounds 455-509) was “+ (activity was measured to be greater than or equal to 5.0 μM)”. At M1 muscarinic receptor (compounds 455-509), the “M1 Activity” value is on record as “+++ (activity was measured to be less than or equal to 2.0 μM)”.
